Laboratory results taken from patent publication US20180312493A1, “Antibiotic Compounds, Pharmaceutical Formulations Thereof And Methods And Uses Therefor” (Simon Fraser University, priority 2015, published 2018).
In brackets after ≈: the same amount, converted by molar mass.

How the values were obtained:
[1] = system: P. aeruginosa (PA01); assay: In vitro susceptibility, broth microdilution (MIC); format: cell-based; details: Pseudomonas aeruginosa, read-out: Antimicrobial activity (MIC) P. aeruginosa
Outline: (§1)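 MIC determined by CLSI 2-fold broth microdilution in cation-adjusted Mueller–Hinton broth at ~2.5×10^5 CFU/ml, final compound 0.031–64 μg/ml, 18–24 h at 37 °C. MIC is the lowest concentration giving complete growth inhibition by background-corrected OD600 versus compound-free wells; duplicate or triplicate wells, replicated at least twice.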

[2] = system: S. typhimurium (ATCC BAA-185); assay: In vitro susceptibility, broth microdilution (MIC); format: cell-based; details: Salmonella enterica, read-out: Antimicrobial activity (MIC) S. typhimurium
Outline: as §1

[3] = system: A. baumannii (ATCC 19606); assay: In vitro susceptibility, broth microdilution (MIC); format: cell-based; details: Acinetobacter baumannii, ATCC19606; A. baumannii ATCC 19606 (values without asterisk); read-out: Antimicrobial activity (MIC) A. baumannii
Outline: as §1

[4] = system: VRE#2 (2010A); assay: In vitro susceptibility, broth microdilution (MIC); format: cell-based, vancomycin resistant Enterococci; details: VRE#2 (2010A); read-out: Antimicrobial activity (MIC) VRE#2
Outline: as §1

[5] = system: MRSA (ATCC BAA-1762); assay: In vitro susceptibility, broth microdilution (MIC); format: cell-based, methicillin resistant S. aureus; details: Staphylococcus aureus; MRSA ATCC BAA-1762; read-out: Antimicrobial activity (MIC) MRSA ATCC BAA1762
Outline: as §1

[6] = system: S. aureus ATCC 29123; assay: Thigh infection model in neutropenic mice; format: in vivo, female CD-1 mice; details: thigh muscle, 10 mg/kg IV BID (2 and 8 h post-infection), 24 hr post infection
Procedure: The antimicrobial activity of compounds 23 and 60 against S. aureus ATCC 29123 was tested in vivo using a thigh infection model in neutropenic mice. Briefly, animals (female CD-1 mice, 5 weeks of age) were made neutropenic prior to S. aureus thigh infection by pre-treating with cyclophosphamide (150 mg/kg, IP, −4 and −1 days pre-inoculation). On the inoculation day (day 0), mice were infected with S. aureus at time zero (t=0). Animals were individually monitored for adverse reactions for 30 min post-infection.
Compounds 23 and 60 were prepared for IV administration and for oral administration. Vancomycin was administered as a solution in PBS. The test compounds were administered at 2 and 8 hours post-infection and animals were individually monitored for adverse reactions for 30 min after each injection. All animals were then monitored hourly from 20 hours post infection to the endpoint (t=24 hr post infection). At the indicated timepoint, animals were sacrificed and the injected thigh collected.
Quantitative enumeration of bacterial load was determined by plating serial dilutions from homogenized thigh muscles. The plates were incubated and colony counts were determined. CFU per mL calculated was calculated.

Structure (SMILES)	MIC [1]	MIC [2]	MIC [3]	MIC [4]	MIC [5]	reduction in CFU [6]
C[N+](C)(C)CCON=C(c1c(-c2cc3cc(Cl)ccc3[nH]2)[nH]c2cc(Br)ccc12)C(F)(F)F (racemic) [Compound 221, 2-(((1-(6-Bromo-5′-chloro-1H,1′H-[2,2′-biindol]-3-yl)-2,2,2-trifluoroethylidene)amino)oxy)-N,N,N-trimethylethan-1-aminium Iodide]	32 µg/mL	64 µg/mL	32 µg/mL	2 µg/mL	2 µg/mL	
CN(C)CCOC(=O)c1c(/C=C/c2ccc(Cl)cc2)[nH]c2cc(Br)ccc12 [Compound 60, (E)-2-(Dimethylamino)ethyl 6-bromo-2-(4-chlorostyryl)-1H-indole-3-carboxylate]			> 64 µg/mL			3 log
NCCOc1cc2[nH]c(-c3cc4ccc(Br)cc4[nH]3)cc2cc1Cl [Compound 201, 2-((6′-Bromo-5-chloro-1H,1′H-[2,2′-biindol]-6-yl)oxy)ethan-1-amine]	16 µg/mL (≈ 39.5 µM)	16 µg/mL (≈ 39.5 µM)	16 µg/mL (≈ 39.5 µM)	4 µg/mL (≈ 9.88 µM)	4 µg/mL (≈ 9.88 µM)	
NCCNC(=O)c1c(-c2cc3cc(Cl)ccc3[nH]2)[nH]c2cc(Br)ccc12 [Compound 206, N-(2-Aminoethyl)-6-bromo-5′-chloro-1H,1′H-[2,2′-biindole]-3-carboxamide]	32 µg/mL (≈ 74.1 µM)	64 µg/mL (≈ 148 µM)	16 µg/mL (≈ 37.1 µM)	4 µg/mL (≈ 9.27 µM)	8 µg/mL (≈ 18.5 µM)	
